Data: the NIST ThermoML archive (doi:10.1016/j.jct.2009.05.008)
± gives the expanded uncertainty stated by the source.

Columns and labels:
[1] = 298.15 K; 101.33 kPa; Liquid; Vibrating tube method
[2] = refractive index (Na D-line) (dimensionless); details: 298.15 K; 101.33 kPa; Liquid; Standard Abbe refractometry

mass density [1]: 1219.61 ± 1.1 kg/m3
refractive index [2]: 1.50591 ± 0.00075
SMILES: CCOS(=O)(=O)[O-].CC[n+]1cccc(C)c1 [1-ethyl-3-methylpyridinium ethylsulfate]
